Among the data in PubChem BioAssay AID651675 (Sanford-Burnham Center for Chemical Genomics, 2012) are EC50 values, retold here.

pEC50: −log10 of the molar value. Activity calls are given as the source filed them.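 The calls were made as follows: active = compounds raising alpha-dystroglycan glycosylation signal with mean half-maximal concentration of 20 µM or lower; inactive = the rest.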

Broadly, the pEC50 is the EC50 on a negative log10 scale, so that one unit is a factor of ten. The EC50 is the midpoint of the concentration-response curve.

This test concerns Pro5-aDG cells, alpha-DG glycosylation, IIH6 AlphaLISA. Description: enhancers of alpha-dystroglycan glycosylation, analogs – Pro5-aDG cells, AlphaLISA, SAR follow-up (AID 651675). (In general: Alpha assays give light when donor and acceptor beads are brought close together.)
In the case of `CCc1cccc2c(-c3csc(NC)n3)c[nH]c12`, the negative logarithm of the EC50 (pEC50) is 5.40.

With `CNc1nc(-c2c[nH]c3ccccc23)cs1`, the pEC50 was 4.99.

With `CCn1c(=N)n(CC(=O)c2ccc(Cl)cc2)c2ccccc21`, the EC50 is 26.6 µM (inactive).

For `C=CCn1c(=N)n(CC(=O)c2ccc(Cl)c(Cl)c2)c2ccccc21`, the EC50 was 33.3 µM (inactive).

Turning to `c1ccc(CCNc2nc(-c3c[nH]c4ccccc34)cs2)cc1`, the pEC50 is 5.29.

For `CCC(C)Nc1nc(-c2c[nH]c3ccccc23)cs1` (centres undefined), the pEC50 is 5.15.

For the molecule `CCn1c(=N)n(CC(=O)c2ccc(Cl)c(Cl)c2)c2ccccc21`, the EC50 was 25.2 µM (inactive).

On to `CC(Cc1ccccc1)Nc1nc(-c2c[nH]c3ccccc23)cs1` (centres undefined), for which the pEC50 was 5.06.

Turning to `N=c1n(CCN2CCCC2)c2ccccc2n1CC(=O)c1ccc(Cl)c(Cl)c1`, the EC50 is 24.2 µM (inactive).

For `N=c1n(CC(=O)c2ccc(Cl)c(Cl)c2)c2ccccc2n1Cc1ccccc1`, the pEC50 was 4.81.

Consider `Cn1c(=N)n(CC(=O)c2ccc(Cl)c(Cl)c2)c2ccccc21`, for which the EC50 is 26 µM (inactive).

For the molecule `Cn1c(=N)n(CC(=O)c2ccc(Cl)cc2)c2ccccc21`, the EC50 is 30.9 µM (inactive).

In the case of `C=CCNc1nc(-c2c[nH]c3ccccc23)cs1`, the pEC50 was 5.24.

Consider `Cn1c(=N)n(CC(=O)c2ccc(F)cc2)c2ccccc21`, for which the EC50 is 34.5 µM (inactive).
